Experimental data published in patent US9150523B2, “Piperazine derivatives, methods for preparing same, and uses thereof in the treatment of insulin resistance” (METABOLYS, priority 2011, dated 2015).

System: db/db mouse
Assay: Antidiabetic activity in db/db mouse (drop in glycaemia after oral administration)
Format: in vivo
Details: 8 weeks old, 200 mg/kg per os
Procedure: The antidiabetic activity of the compound of formula (I) orally on a type 2 diabetes animal model, the db/db mouse, was tested. Diabetic mice are used at the age of 8 weeks; they then have very high hyperglycaemia. The animals are stabilised at a minimum for one week after reception and up to the day of experimentation in an animal house at a temperature regulated at 21°-22° C. and subjected to a fixed cycle of light (from 7 a.m. to 7 p.m.) and darkness (from 7 p.m. to 7 a.m.). Their food consisted of a maintenance regime; water and food were supplied “ad libitum”. The mice are treated orally with the product to be tested (200 mg/kg per os) in suspension in a mixture of water and methyl cellulose or the vehicle (mixture of water and methyl cellulose) in the morning of the day of the experimentation. Just before the administration of the product and one and two hours after the administration of the product, a blood sample (one drop of blood) is taken following a small incision in the tail for determining glycaemia. This glycaemia is measured by means of a glucometer (Lifescan OneTouch Ultra, LifeScan, Johnson-Johnson Company) and OneTouch Ultra glycaemia measurement strips.

COc1ccccc1N1CCN(CCOc2ccc(CCCCC(=O)O)cc2)CC1.Cl [Compound 1]
Drop in glycaemia (in % of the initial value) After 1 hour (1 hour after administration): 34% | Drop in glycaemia (in % of the initial value) After 2 hours (2 hours after administration): 44%
